Source: PubChem BioAssay AID248 (DTP/NCI, 2004)
Several values for one entry are separate records, joined by “and”; a condition that tells them apart may be missing. Equal entries are not always repeated. Inconclusive results and toxic doses are left out. No stated cut-off is given here; in the data, active means T/C of 150% or more; inactive means T/C below 125%.

System: L1210 leukemia ip in BDF1 mice, survival T/C
Experiment: NCI In Vivo Anticancer Drug Screen. Data for tumor model L1210 Leukemia (intraperitoneal) in B6D2F1 (BDF1) mice
Conditions: endpoint: mean survival time, higher = longer survival
How it was run: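 Value reflects the ratio of survival in compound-treated mice to survival in vehicle-treated controls, with both groups carrying the same transplanted tumor.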

[1] = dose: 100.0 mg/kg/injection, schedule: Q04DX003 (ip), vehicle: saline
[2] = dose: 200.0 mg/kg/injection, schedule: Q04DX003 (ip), vehicle: saline
[3] = dose: 400.0 mg/kg/injection, schedule: Q04DX003 (ip), vehicle: saline
[4] = dose: 100.0 mg/kg/injection, schedule: Q01DX001 (ip), vehicle: saline with Tween-80
[5] = dose: 200.0 mg/kg/injection, schedule: Q01DX001 (ip), vehicle: saline with Tween-80
[6] = dose: 400.0 mg/kg/injection, schedule: Q01DX001 (ip), vehicle: saline with Tween-80
[7] = dose: 100.0 mg/kg/injection, schedule: Q04DX003 (ip), vehicle: Klucel (hydroxypropylcellulose) (HPC)
[8] = dose: 200.0 mg/kg/injection, schedule: Q04DX003 (ip), vehicle: Klucel (hydroxypropylcellulose) (HPC)
[9] = dose: 100.0 mg/kg/injection, schedule: Q04DX002 (ip), vehicle: saline
[10] = dose: 200.0 mg/kg/injection, schedule: Q04DX002 (ip), vehicle: saline
[11] = dose: 400.0 mg/kg/injection, schedule: Q04DX002 (ip), vehicle: saline
[12] = dose: 100.0 mg/kg/injection, schedule: Q04DX002 (ip), vehicle: Klucel (hydroxypropylcellulose) (HPC)
[13] = dose: 200.0 mg/kg/injection, schedule: Q04DX002 (ip), vehicle: Klucel (hydroxypropylcellulose) (HPC)
[14] = dose: 400.0 mg/kg/injection, schedule: Q04DX002 (ip), vehicle: Klucel (hydroxypropylcellulose) (HPC)
[15] = dose: 100.0 mg/kg/injection, schedule: Q01DX001 (ip), vehicle: other
[16] = dose: 200.0 mg/kg/injection, schedule: Q01DX001 (ip), vehicle: other
[17] = dose: 400.0 mg/kg/injection, schedule: Q01DX001 (ip), vehicle: other
[18] = dose: 50.0 mg/kg/injection, schedule: Q01DX009 (ip), vehicle: saline with Tween-80
[19] = dose: 100.0 mg/kg/injection, schedule: Q01DX009 (ip), vehicle: saline with Tween-80
[20] = dose: 100.0 mg/kg/injection, schedule: Q04DX003 (ip), vehicle: saline with Tween-80
[21] = dose: 200.0 mg/kg/injection, schedule: Q04DX003 (ip), vehicle: saline with Tween-80

Measured: T/C

NC(=Nc1ccccc1)c1ccc(C(N)=Nc2ccccc2)cc1
inactive: dose: 15.0 mg/kg/injection, schedule: Q01DX Z (ip), vehicle: carboxymethylcellulose (CMC) 104 % of control | dose: 30.0 mg/kg/injection, schedule: Q01DX Z (ip), vehicle: carboxymethylcellulose (CMC) 98 % of control | dose: 60.0 mg/kg/injection, schedule: Q01DX Z (ip), vehicle: carboxymethylcellulose (CMC) 86 % of control

Nc1nc2ncc(=O)[nH]c2c(=O)[nH]1
inactive: dose: 50.0 mg/kg/injection, schedule: Q01DX009 (ip), vehicle: saline 106 % of control | dose: 50.0 mg/kg/injection, schedule: Q04DX003 (ip), vehicle: saline 103 % of control | dose: 100.0 mg/kg/injection, schedule: Q01DX009 (ip), vehicle: saline 101 % of control | [1] 100 % of control | dose: 200.0 mg/kg/injection, schedule: Q01DX009 (ip), vehicle: saline 87 % of control | [2] 106 % of control | [3] 122 % of control

CCOc1cccc(Cc2cn(Cc3cccc(NC(=O)c4ccccc4)c3)c(=O)[nH]c2=O)c1
inactive: [4] 93 % of control | [5] 96 % of control | [6] 95 % of control

CN(C)CC1C2C=CC(C3CC23)C1CN(C)C (centres undefined)
inactive: dose: 25.0 mg/kg/injection, schedule: Q01DX009 (ip), vehicle: Klucel (hydroxypropylcellulose) (HPC) 113 % of control | dose: 25.0 mg/kg/injection, schedule: Q04DX003 (ip), vehicle: Klucel (hydroxypropylcellulose) (HPC) 94 % of control | dose: 50.0 mg/kg/injection, schedule: Q01DX009 (ip), vehicle: Klucel (hydroxypropylcellulose) (HPC) 107 % of control | dose: 50.0 mg/kg/injection, schedule: Q04DX003 (ip), vehicle: Klucel (hydroxypropylcellulose) (HPC) 102 % of control | dose: 100.0 mg/kg/injection, schedule: Q01DX009 (ip), vehicle: Klucel (hydroxypropylcellulose) (HPC) 108 % of control | [7] 94 % of control and 92 % of control | [8] 89 % of control

O=CC(O)C(O)C(O)C(O)COC(=S)OCC(O)C(O)C(O)C(O)C=O (centres undefined) (tested in a mixture with another compound)
inactive: [9] 110 % of control | [10] 100 % of control | [11] 95 % of control

O=[N+]([O-])c1ccc(C2=NCCO2)cc1
inactive: [9] 104 % of control | [10] 114 % of control | [11] 104 % of control

CCCCS(=O)(=O)c1nc2ccc([N+](=O)[O-])cc2s1
inactive: dose: 100.0 mg/kg/injection, schedule: Q04DX002 (ip), vehicle: saline with Tween-80 92 % of control | dose: 200.0 mg/kg/injection, schedule: Q04DX002 (ip), vehicle: saline with Tween-80 95 % of control

O=C(Nc1ccccc1)Oc1ccc(Cl)cc1Cl
inactive: [12] 104 % of control | [13] 110 % of control | [14] 96 % of control

CNC(N)=S
inactive: [1] 99 % of control | [2] 94 % of control | [3] 97 % of control

O=C(Nc1ccccc1)C(Cl)(Cl)Cl
inactive: dose: 50.0 mg/kg/injection, schedule: Q01DX001 (ip), vehicle: other 104 % of control | [15] 102 % of control | [12] 106 % of control | [16] 102 % of control | [13] 92 % of control | [17] 104 % of control | [14] 89 % of control

CC(C)(C)C1CCC(=O)CC1
inactive: dose: 12.5 mg/kg/injection, schedule: Q04DX002 (ip), vehicle: saline 109 % of control | dose: 25.0 mg/kg/injection, schedule: Q04DX002 (ip), vehicle: saline 106 % of control | dose: 50.0 mg/kg/injection, schedule: Q04DX002 (ip), vehicle: saline 95 % of control | [9] 99 % of control

CC1=C(C)CC(/C(=N\Nc2ccc([N+](=O)[O-])cc2[N+](=O)[O-])c2ccccc2)CC1 (centres undefined)
inactive: [4] 89 % of control | [5] 89 % of control | [6] 96 % of control

NC(=O)C(NC(=O)c1ccccc1)Sc1ccccc1 (centres undefined)
inactive: dose: 50.0 mg/kg/injection, schedule: Q01DX001 (ip), vehicle: Klucel (hydroxypropylcellulose) (HPC) 100 % of control | dose: 100.0 mg/kg/injection, schedule: Q01DX001 (ip), vehicle: Klucel (hydroxypropylcellulose) (HPC) 100 % of control | dose: 200.0 mg/kg/injection, schedule: Q01DX001 (ip), vehicle: Klucel (hydroxypropylcellulose) (HPC) 96 % of control

CN(C)c1ccc(CNc2ccc(Cl)cc2)cc1
inactive: [7] 91 % of control | [8] 89 % of control | dose: 400.0 mg/kg/injection, schedule: Q04DX003 (ip), vehicle: Klucel (hydroxypropylcellulose) (HPC) 93 % of control

O=C(O)C(=O)Cc1ccc(O)cc1
inactive: dose: 50.0 mg/kg/injection, schedule: Q01DX001 (ip), vehicle: carboxymethylcellulose (CMC) 105 % of control | dose: 100.0 mg/kg/injection, schedule: Q01DX001 (ip), vehicle: carboxymethylcellulose (CMC) 96 % of control | dose: 200.0 mg/kg/injection, schedule: Q01DX001 (ip), vehicle: carboxymethylcellulose (CMC) 91 % of control | dose: 400.0 mg/kg/injection, schedule: Q01DX001 (ip), vehicle: carboxymethylcellulose (CMC) 100 % of control

CCC1C2CC3C4N(C)c5ccccc5C45CC(C2C5O)N3C1O (centres undefined)
inactive: [18] 100 % of control | [19] 103 % of control

Oc1c(Cl)cc(Cl)cc1C=Nc1ccc(Br)cn1
inactive: [15] 95 % of control | [16] 101 % of control | [17] 95 % of control

O=C(C(Sc1ccccc1)=P(c1ccccc1)(c1ccccc1)c1ccccc1)c1ccccc1
inactive: [20] 90 % of control | [21] 90 % of control

O=C(CCl)Oc1ccccc1
inactive: [18] 94 % of control | [19] 87 % of control | [20] 101 % of control | [21] 96 % of control
